Experiments:
Assay type in all cases: in vivo
[1] = test system: yellow fever mosquito (Aedes aegypti); assay: whole plant or invertebrate; details: 48 h, larval mortality visually assessed after 2 days, read-out: mortality in comparison with untreated controls
Method: Example B1: Action on Yellow Fever Mosquito (Aedes aegypti)
For evaluating control of yellow fever mosquito (Aedes aegypti) the test unit consisted of 96-well-microtiter plates containing 200 μl of tap water per well and 5-15 freshly hatched A. aegypti larvae.
The active compounds were formulated using a solution containing 75% (v/v) water and 25% (v/v) DMSO. Different concentrations of formulated compounds or mixtures were sprayed onto the insect diet at 2.5 μl, using a custom built micro atomizer, at two replications.
After application, microtiter plates were incubated at 28+1° C., 80+5% RH for 2 days. Larval mortality was then visually assessed.

[2] = test system: Orchid thrips (Dichromothrips corbetti); assay: Action on orchid thrips (Dichromothrips corbetti), floral-immersion technique; details: adult thrips, mortality 72 hours after treatment, read-out: mortality in comparison with untreated controls
Method: Example B2: Action on Orchid thrips (Dichromothrips corbetti)
Dichromothrips corbetti adults used for bioassay were obtained from a colony maintained continuously under laboratory conditions. For testing purposes, the test compound is diluted in a 1:1 mixture of acetone:water (vol:vol), plus Kinetic® HV at a rate of 0.01% v/v.
Thrips potency of each compound was evaluated by using a floral-immersion technique. All petals of individual, intact orchid flowers were dipped into treatment solution and allowed to dry in Petri dishes. Treated petals were placed into individual re-sealable plastic along with about […]. All test arenas were held under continuous light and a temperature of about 28° C. for duration of the assay. After 3 days, the numbers of live thrips were counted on each petal. The percent mortality was recorded 72 hours after treatment.

[3] = test system: boll weevil (Anthonomus grandis); assay: Action on boll weevil (Anthonomus grandis), eggs on insect diet in microtiter plates; details: 120 h, egg and larval mortality after 5 days, read-out: mortality in comparison with untreated controls
Method: Example B3: Action on Boll Weevil (Anthonomus grandis)
For evaluating control of boll weevil (Anthonomus grandis) the test unit consisted of 96-well-microtiter plates containing an insect diet and 5-10 A. grandis eggs.
The compounds were formulated using a solution containing 75% v/v water and 25% v/v DMSO. Different concentrations of formulated compounds were sprayed onto the insect diet at 5 μl, using a custom built micro atomizer, at two replications.
After application, microtiter plates were incubated at about 25±1° C. and about 75±5% relative humidity for 5 days. Egg and larval mortality was then visually assessed.

[4] = test system: tobacco budworm (Heliothis virescens); assay: Action on tobacco budworm (Heliothis virescens), eggs on insect diet in microtiter plates; details: 120 h, egg and larval mortality after 5 days, read-out: mortality in comparison with untreated controls
Method: Example B5: Action on Tobacco Budworm (Heliothis virescens)
For evaluating control of tobacco budworm (Heliothis virescens) the test unit consisted of 96-well-microtiter plates containing an insect diet and 15-25 H. virescens eggs.
The compounds were formulated using a solution containing 75% v/v water and 25% v/v DMSO. Different concentrations of formulated compounds were sprayed onto the insect diet at 10 μl, using a custom built micro atomizer, at two replications.
After application, microtiter plates were incubated at about 28±1° C. and about 80±5% relative humidity for 5 days. Egg and larval mortality was then visually assessed.

[5] = test system: Diamond Back Moth (Plutella xylostella); assay: Action on diamond back moth (Plutella xylostella), cabbage leaf dip; details: foliar, 3rd instar larvae on dipped cabbage leaves, mortality 72 hours after treatment, read-out: mortality in comparison with untreated controls
Method: Example B6: Action on Diamond Back Moth (Plutella xylostella)
The active compound is dissolved at the desired concentration in a mixture of 1:1 (vol:vol) distilled water:acetone. Surfactant (Kinetic® HV) is added at a rate of 0.01% (vol/vol). The test solution is prepared at the day of use.
Leaves of cabbage were dipped in test solution and air-dried. Treated leaves were placed in petri dishes lined with moist filter paper and inoculated with ten 3rd instar larvae. Mortality was recorded 72 hours after treatment. Feeding damages were also recorded using a scale of 0-100%.

[6] = test system: Southern Armyworm (Spodoptera eridania), 2nd Instar Larvae; assay: Action on southern armyworm (Spodoptera eridania), 2nd instar larvae on sprayed lima bean plants; details: 96 h, 2nd instar larvae on lima bean plants, 4 days after treatment, read-out: mortality in comparison with untreated controls
Method: Example B7: Action on Southern Armyworm (Spodoptera eridania), 2nd Instar Larvae
The active compounds were formulated by a Tecan liquid handler in 100% cyclohexanone as a 10,000 ppm solution supplied in tubes. The 10,000 ppm solution was serially diluted in 100% cyclohexanone to make interim solutions. These served as stock solutions for which final dilutions were made by the Tecan in 50% acetone:50% water (v/v) into 10 or 20 ml glass vials. A nonionic surfactant (Kinetic®) was included in the solution at a volume of 0.01% (v/v). The vials were then inserted into an automated electrostatic sprayer equipped with an atomizing nozzle for application to plants/insects.
Lima bean plants (variety Sieva) were grown 2 plants to a pot and selected for treatment at the 1st true leaf stage. Test solutions were sprayed onto the foliage by an automated electrostatic plant sprayer equipped with an atomizing spray nozzle. The plants were dried in the sprayer fume hood and then removed from the sprayer. Each pot was placed into perforated plastic bags with a zip closure. About 10 to 11 armyworm larvae were placed into the bag and the bags zipped closed. Test plants were maintained in a growth room at about 25° C. and about 20-40% relative humidity for 4 days, avoiding direct exposure to fluorescent light (24 hour photoperiod) to prevent trapping of heat inside the bags. Mortality and reduced feeding were assessed 4 days after treatment, compared to untreated control plants.

Cc1cccc(C)c1NC(=S)N/N=C/c1ccc2c(COc3ccc(OC(F)(F)F)cc3)nn(C)c2c1 [Example C-1, 1-(2,6-dimethylphenyl)-3-[(E)-[1-methyl-3-[[4-(trifluoromethoxy)phenoxy]methyl]indazol-6-yl]methyleneamino]thiourea]
≥ 75%: mortality at 800 ppm [1] | mortality at 500 ppm [2] | mortality at 800 ppm [3] | mortality at 800 ppm [4] | mortality at 500 ppm [5] | mortality at 300 ppm [6]

Cc1cccc(C)c1N1C(=O)CS/C1=N\N=C\c1ccc2c(COc3ccc(OC(F)(F)F)cc3)nn(C)c2c1 [Example C-2, (2Z)-3-(2,6-dimethylphenyl)-2-[(E)-[1-methyl-3-[[4-(trifluoromethoxy)phenoxy]methyl]indazol-6-yl]methylenehydrazono]thiazolidin-4-one]
≥ 75%: mortality at 800 ppm [1] | mortality at 500 ppm [2] | mortality at 800 ppm [3] | mortality at 800 ppm [4] | mortality at 500 ppm [5]

CC(C)c1ccccc1N1C(=O)CS/C1=N\N=C\c1ccc2c(COc3ccc(OC(F)(F)F)cc3)nn(C)c2c1 [Example C-4, (2Z)-3-(2-isopropylphenyl)-2-[(E)-[1-methyl-3-[[4-(trifluoromethoxy)phenoxy]methyl]indazol-6-yl]methylenehydrazono]thiazolidin-4-one]
≥ 75%: mortality at 800 ppm [1] | mortality at 500 ppm [2] | mortality at 800 ppm [3] | mortality at 500 ppm [5]

CO[C@@H]1[C@@H](OC)[C@H](C)O[C@@H](OC(=O)Nc2ccc3c(NC(=O)c4ccc(OC(F)(F)F)cc4)nn(C)c3c2)[C@@H]1OC [Example C-5, [(2S,3R,4R,5S,6S)-3,4,5-trimethoxy-6-methyl-tetrahydropyran-2-yl] N-[1-methyl-3-[[4-(trifluoromethoxy)benzoyl]amino]indazol-6-yl]carbamate]
≥ 75%: mortality at 800 ppm [1] | mortality at 800 ppm [3]

CC(C)c1ccccc1NC(=S)N/N=C/c1ccc2c(C(=O)Nc3ccc(OC(F)(F)F)cc3)nn(C)c2c1 [Example C-7, 6-[(E)-[(2-isopropylphenyl)carbamothioylhydrazono]methyl]-1-methyl-N-[4-(trifluoromethoxy)phenyl]indazole-3-carboxamide]
≥ 75%: mortality at 800 ppm [1] | mortality at 800 ppm [3] | mortality at 800 ppm [4] | mortality at 500 ppm [5] | mortality at 300 ppm [6]

CC(C)c1ccccc1N1C(=O)CS/C1=N\N=C\c1ccc2c(C(=O)Nc3ccc(OC(F)(F)F)cc3)nn(C)c2c1 [Example C-8, 6-[(E)-[(Z)-[3-(2-isopropylphenyl)-4-oxo-thiazolidin-2-ylidene]hydrazono]methyl]-1-methyl-N-[4-(trifluoromethoxy)phenyl]indazole-3-carboxamide]
≥ 75%: mortality at 800 ppm [1] | mortality at 800 ppm [3] | mortality at 800 ppm [4] | mortality at 500 ppm [5] | mortality at 300 ppm [6]

CC(C)c1ccccc1NC(=S)N/N=C/c1cc2c(cn1)c(COc1ccc(OC(F)(F)F)cc1)nn2C [Example C-15, 1-(2-isopropylphenyl)-3-[(E)-[1-methyl-3-[[4-(trifluoromethoxy)phenoxy]methyl]pyrazolo[4,3-c]pyridin-6 yl]methyleneamino]thiourea]
≥ 75%: mortality at 800 ppm [1] | mortality at 500 ppm [2] | mortality at 800 ppm [3] | mortality at 800 ppm [4] | mortality at 500 ppm [5] | mortality at 300 ppm [6]

CC(C)c1ccccc1NC(=S)NN=Cc1cc(F)c2c(C(=O)Nc3ccc(OC(F)(F)F)cc3)nn(C)c2c1 [Example C-17, 4-fluoro-6-[[(2-isopropylphenyl)carbamothioylhydrazono]methyl]—1-methyl-N-[4-(trifluoromethoxy)phenyl]indazole-3-carboxamide]
≥ 75%: mortality at 800 ppm [3] | mortality at 800 ppm [4] | mortality at 300 ppm [6]

CC(C)c1ccccc1NC(=S)NN=Cc1cc(F)c2c(C(=O)N(C)c3ccc(OC(F)(F)F)cc3)nn(C)c2c1 [Example C-18, 4-fluoro-6-[[(2-isopropylphenyl)carbamothioylhydrazono]methyl]-N,1-dimethyl-N-[4-(trifluoromethoxy)phenyl]indazole-3-carboxamide]
≥ 75%: mortality at 800 ppm [3] | mortality at 800 ppm [4] | mortality at 500 ppm [5] | mortality at 300 ppm [6]

CC(C)c1ccccc1N1C(=O)CS/C1=N\N=Cc1cc(F)c2c(C(=O)N(C)c3ccc(OC(F)(F)F)cc3)nn(C)c2c1 [Example C-19, 4-fluoro-6-[[(Z)-[3-(2-isopropylphenyl)-4-oxo-thiazolidin-2-ylidene]hydrazono]methyl]-N,1-dimethyl-N-[4-(trifluoromethoxy)phenyl]indazole-3-carboxamide]
≥ 75%: mortality at 800 ppm [1] | mortality at 500 ppm [2] | mortality at 800 ppm [3] | mortality at 800 ppm [4] | mortality at 500 ppm [5] | mortality at 300 ppm [6]

CC(C)c1ccccc1NC(=S)N/N=C/c1ccc2c(COc3ccc(OC(F)(F)F)cc3)nsc2c1 [Example C-22, 1-(2-isopropylphenyl)-3-[(E)-[3-[[4-(trifluoromethoxy)phenoxy]methyl]-1,2-benzothiazol-6-yl]methyleneamino]thiourea]
≥ 75%: mortality at 800 ppm [3] | mortality at 800 ppm [4] | mortality at 500 ppm [5] | mortality at 300 ppm [6]

CC(C)c1ccccc1N1C(=O)CS/C1=N\N=C\c1ccc2c(COc3ccc(OC(F)(F)F)cc3)nsc2c1 [Example C-23, (2Z)-3-(2-isopropylphenyl)-2-[(E)-[3-[[4-(trifluoromethoxy)phenoxy]methyl]-1,2-benzothiazol-6-yl]methylenehydrazono]thiazolidin-4-one]
≥ 75%: mortality at 800 ppm [3] | mortality at 800 ppm [4] | mortality at 500 ppm [5] | mortality at 300 ppm [6]

CC(C)c1ccccc1NC(=S)N/N=C/c1ccc2c(COc3ccc(OC(F)(F)F)cc3)noc2c1 [Example C-24, 1-(2-isopropylphenyl)-3-[(E)-[3-[[4-(trifluoromethoxy)phenoxy]methyl]-1,2-benzoxazol-6-yl]methyleneamino]thiourea]
≥ 75%: mortality at 800 ppm [3] | mortality at 800 ppm [4] | mortality at 500 ppm [5]

CC(C)c1ccccc1N1C(=O)CS/C1=N\N=C\c1ccc2c(COc3ccc(OC(F)(F)F)cc3)noc2c1 [Example C-25, (2Z)-3-(2-isopropylphenyl)-2-[(E)-[3-[[4-(trifluoromethoxy)phenoxy]methyl]-1,2-benzoxazol-6-yl]methylenehydrazono]thiazolidin-4-one]
≥ 75%: mortality at 800 ppm [1] | mortality at 800 ppm [3] | mortality at 800 ppm [4] | mortality at 500 ppm [5]

Source: US11160280B2, “Pesticial compounds” (BASF SE, priority 2017, dated 2021)
